Values after ≈ are worked out from the molar mass of the structure shown. Values joined by “and” are separate entries in the source; they are usually repeats but may differ in a detail not shown here. Equal entries are not always repeated. “Also recorded” adds a separate entry of the source. Where two headings read alike, the source gives them in different places. Blank lines part the entries; values can stand above or below the compound they belong to.
How the values were obtained:
[1] = test system: ARGLi; settings: read-out: Km for L-arginine; 1 to 50 mM L-arginine, pH 9.5, 37 °C
Description: ARGLi (0.2 µg/mL) was incubated with L-arginine at concentrations ranging from 1 to 50 mM in 50 mM CHES buffer (pH 9.5) at 37 °C for 5 min. Vmax and Km values were determined by the analysis of the initial velocity versus substrate concentration curve using the Michaelis–Menten equation in Graph Prism 6.

[2] = test system: L. infantum promastigotes; test: Inhibition of L. infantum promastigotes growth (resazurin); format: cell-based, Leishmania infantum; settings: for Promastigotes IC50±SE / IC50: 96 h, 26 °C, resazurin; for IC50: Leishmania infantum, read-out: Promastigotes IC50±SE; for SI PRO (selectivity index CC50/IC50, promastigotes): CC50 RAW 264.7 / IC50 promastigotes
Description: The parasite growth inhibition assays were performed on 96-well microplates, where the selected ARGLi inhibitors were previously diluted (1–200 μg/mL). Subsequently, promastigote forms of L. infantum collected in late logarithmic phase (96 h) were added to microplates at the final concentration of 10^6 parasites/mL. Microplates were incubated at 26 °C for 96 h. After the incubation period, parasites viability was determined using 0.005% resazurin[30]. The 50% inhibitory concentration (IC50) was determined from the dose-response curves generated from the data.

[3] = Cytotoxicity in RAW 264.7 macrophages (MTT); format: cell-based; settings: mouse, read-out: RAW 264.7 CC50±SE
Description: (§1) RAW 264.7 macrophages were cultured in polystyrene culture flasks containing DMEM medium supplemented with 10% FBS at 37 °C and 5% CO2 atmosphere. For cytotoxic evaluation, 48 h cultured cells were harvested, washed with culture medium, and distributed into 96-well culture plates at 10^5 cells/well concentration. The cells were allowed to adhere for 2 h prior to the addition of increasing inhibitor concentrations (31–1000 µg/mL). Treated cell cultures were incubated for 48 h under the same experimental conditions. After this period, cell viability was determined by colorimetric assay using MTT solution (5 mg/mL) as an indicator. The 50% cytotoxic concentration (CC50) was calculated by analysing the dose-response curves generated from the data.

[4] = test system: axenic amastigote forms of L. donovani; design: method as in PMID 16569852; settings: cited from earlier work
[5] = test system: L. amazonensis arginase; settings: cited from earlier work; for effect on L. amazonensis arginase (in words): phenolics without catechol group ref 15; for inhibition of L. amazonensis arginase activity: final concentration of 20 μM ref 13; for IC50: read-out: IC50 against L. amazonensis arginase
[6] = test system: Leishmania infantum arginase (ARGLi); test: ARGLi inhibition by phenolic substances (urea production); format: biochemical; settings: 100 µM substance, 50 mM L-arginine, pH 9.5, 37 °C, 5 min
[7] = test system: L. infantum intracellular amastigotes; test: Intracellular anti-amastigote activity in infected RAW 264.7 macrophages; format: cell-based, Leishmania infantum; settings: for SI AMA (selectivity index CC50/IC50, intracellular amastigotes): CC50 RAW 264.7 / IC50 intracellular amastigotes; for IC50: Leishmania infantum, RAW264.7, 48 h, read-out: Intracellular amastigotes IC50±SE
Description: (§2) The intracellular anti-amastigote activity was performed according to previously described procedures[31] with some modifications. Initially, RAW 264.7 macrophages were distributed in 96-well plates and, after adherence (incubation for 2 h), cells were washed twice with phosphate buffer saline (PBS, pH 7.2). Then, the adherent cells were infected with promastigote forms of L. infantum at the stationary phase of growth in a proportion of 10 parasites/macrophage. After 4 h of interaction at 37 °C and 5% CO2 atmosphere, free parasites were washed away with PBS and infected macrophages were incubated for another 24 h to allow differentiation into amastigotes. After this time, infected cells were treated for 48 h with increasing concentrations of the selected inhibitor. Subsequently, the culture supernatant was collected for evaluation of nitric oxide production using the Griess reaction. Cells were washed with PBS, then Schneider’s medium supplemented with 5% FBS was added and the plate was incubated at 26 °C for 72 h. The parasite survival was estimated by viability of differentiated promastigote forms recovered from the cultures using MTT (5 mg/mL). The results were expressed as the percentage of viability in relation to that obtained for the control (100%). The IC50 for amastigote forms was calculated from the dose-response curves generated from the data.

[8] = test system: L. infantum-infected RAW 264.7 macrophages; test: Nitric oxide production by infected macrophages (Griess reaction); format: cell-based; settings: for effect on NO production by infected macrophages (in words): 48 h treatment; for increase in nitrite levels in comparison to the control: 48 h
Description: as §2
In order to determine if ARGLi inhibitors were capable of modulating the host cell response, RAW 264.7 macrophages were infected with promastigote forms of L. infantum and treated with different concentrations of inhibitors for 48 h. After treatment, NO production was measured. […] This increase is similar to that observed for the reference drug Fungizone® (Figure 5(B)). The effect of caffeic acid on NO production may be a result of macrophage arginase inhibition and consequent oxidation of accumulated L-arginine by inducible NO synthase (iNOS).
Figure 5. Nitric oxide production by L. infantum-infected RAW 264.7 macrophages treated with different concentrations of ARGLi inhibitors. (A) Treatment with 3.1–200 μg/mL of rosmarinic acid (black), caffeic acid (light gray), and catechin (dark gray). (B) Treatment with 0.062–0.5 μg/mL of the reference drug fungizone. Control (white) represents the production of nitric oxide by infected and untreated macrophages. Nitrite concentration was measured by the Griess reaction and data represent mean ± SE of two independent experiments.

[9] = test system: L. amazonensis promastigotes; settings: cited from earlier work
[10] = test system: intracellular amastigotes of L. amazonensis; design: method as in PMID 24906989; settings: cited from earlier work
[11] = test system: BALB/c mice peritoneal macrophages; settings: cited from earlier work
[12] = test system: L. amazonensis; settings: cited from earlier work; for reduction of lesion size and parasite burden (in words): compared with reference drug Glucantime ref 42; for mice death or loss of body weight (in words): treated BALB/c mice ref 42
[13] = test system: bovine hepatic arginase; design: method as in PMID 27776374; settings: cited from earlier work; for percentage of inhibition of bovine hepatic arginase: 100 μM ref 37
[14] = test system: RAW 264.7 macrophages; test: Cytotoxicity in RAW 264.7 macrophages (MTT); format: cell-based; settings: 48 h
Description: as §1

[15] = infected RAW 264.7, 48 h treatment

Structure (SMILES): N=C(N)NCCC[C@H](N)C(=O)O [L-arginine]
Km [1]: 5.1 ± 1.1 mM

Structure (SMILES): COc1cc(-c2oc3cc(O)cc(O)c3c(=O)c2O)ccc1O [Isorhamnetin, isorhamnetin]
Promastigotes IC50±SE [2]: 258.7 ± 9.50 µg/mL | IC50 [2]: 263 µg/mL and 818 µM | CC50 at 48 h [3]: > 1000 µg/mL and > 3 mM | IC50 axenic amastigote forms of L. donovani [4]: 3.8 µg/mL

Structure (SMILES): O=c1cc(-c2ccc(O)cc2)oc2cc(O)cc(O)c12 [apigenin]
effect on L. amazonensis arginase (in words) [5]: little effect

Structure (SMILES): Oc1cc(O)c2c(c1)O[C@H](c1ccc(O)c(O)c1)[C@@H](O)C2 [(+)-catechin]
inhibition of L. amazonensis arginase activity [5]: more than 50%

Structure (SMILES): O=c1cc(-c2ccc(O)cc2)oc2c([C@@H]3O[C@H](CO)[C@@H](O)[C@H](O)[C@H]3O)c(O)cc(O)c12 [vitexin]
effect on L. amazonensis arginase (in words) [5]: little effect

percentage of inhibition of ARGLi activity [6]: more than 50% | IC50 [2]: > 400 µg/mL and > 1 mM
Structure (SMILES): COc1ccc(/C=C/c2cc(O)cc(O[C@@H]3O[C@H](CO)[C@@H](O)[C@H](O)[C@H]3O)c2)cc1O [Rhaponticin, rhaponticin]
antileishmanial activity against promastigotes (in words) ([2]; highest concentration tested): did not inhibit promastigote growth at the highest concentration tested | CC50 at 48 h ([3]; RAW 264.7 macrophages): 825 µg/mL and 1.96 mM

Structure (SMILES): O=c1c(O)c(-c2ccc(O)cc2)oc2cc(O)cc(O)c12 [kaempferol, reference compound]
IC50 [5]: 50 µM | IC50 against L. donovani [4]: 2.9 µg/mL (≈ 10.1 µM)

Structure (SMILES): O=c1cc(-c2ccc(O)c(O)c2)oc2cc(O)c([C@@H]3O[C@H](CO)[C@@H](O)[C@H](O)[C@H]3O)c(O)c12 [isoorientin]
IC50 [5]: 9 ± 1 µM

Structure (SMILES): O=c1cc(-c2ccc(O)c(O)c2)oc2cc(O)cc(O)c12 [luteolin]
IC50 [5]: 9 ± 1 µM

Structure (SMILES): Oc1cc(O)c2c(c1)O[C@H](c1ccc(O)c(O)c1)[C@H](O)C2 [(−)-epicatechin]
inhibition of L. amazonensis arginase activity [5]: more than 50%

Structure (SMILES): O=c1c(O)c(-c2ccccc2)oc2cc(O)cc(O)c12 [galangin]
IC50 [5]: 100 µM

Structure (SMILES): O=C(/C=C/c1ccc(O)c(O)c1)O[C@H](Cc1ccc(O)c(O)c1)C(=O)O [Rosmarinic acid, rosmarinic acid]
SI PRO (selectivity index CC50/IC50, promastigotes) [2]: 8.56 | IC50 [2]: 20.6 µg/mL and 57.3 µM | CC50 at 48 h [3]: 177 µg/mL and 491 µM | SI AMA (selectivity index CC50/IC50, intracellular amastigotes) [7]: 61.79 | IC50 [7, 15]: 2.86 µg/mL and 7.9 µM | effect on NO production by infected macrophages (in words) [8]: did not affect NO production | IC50 against L. amazonensis promastigote forms [9]: 0.2 ± 0.1 µg/mL (≈ 0.555 µM) | IC50 for intracellular amastigotes of L. amazonensis [10]: 1.7 ± 0.4 µg/mL | CC50 for BALB/c mice peritoneal macrophages [11]: 33.5 ± 1.4 µg/mL | reduction of lesion size and parasite burden (in words) [12]: more effective in reducing lesion size and parasite burden | mice death or loss of body weight (in words) [12]: did not lead to mice death or significant loss of body weight

Structure (SMILES): O=c1c(O)c(-c2ccc(O)c(O)c2)oc2cc(O)ccc12 [fisetin]
IC50 [5]: 1.4 ± 0.3 µM

Structure (SMILES): O=c1c(O[C@@H]2O[C@H](CO)[C@@H](O)[C@H](O)[C@H]2O)c(-c2ccc(O)c(O)c2)oc2cc(O)cc(O)c12 [isoquercitrin]
inhibition of L. amazonensis arginase activity [5]: more than 50%

Structure (SMILES): O=C(/C=C/c1ccc(O)c(O)c1)O[C@@H]1C[C@](O)(C(=O)O)C[C@@H](O)[C@H]1O [Chlorogenic acid, chlorogenic acid]
inhibition of L. amazonensis arginase activity [5]: more than 50%

Structure (SMILES): O=c1cc(-c2ccc(O)c(O)c2)oc2c([C@@H]3O[C@H](CO)[C@@H](O)[C@H](O)[C@H]3O)c(O)cc(O)c12 [orientin]
IC50 [5]: 16 ± 2 µM

percentage of inhibition of ARGLi activity [6]: ~56% | percentage of inhibition of ARGLi activity ([6]; listed as rhamnetin): more than 50% | Promastigotes IC50±SE [2]: 263.2 ± 3.87 µg/mL | IC50 [2]: 259 µg/mL and 832 µM
Structure (SMILES): COc1cc(O)c2c(=O)c(O)c(-c3ccc(O)c(O)c3)oc2c1 [Rhamnetin, rhamnetin]
CC50 at 48 h ([3]; RAW 264.7 macrophages): > 1000 µg/mL and > 3 mM | IC50 axenic amastigote forms of L. donovani [4]: 4.6 µg/mL

Structure (SMILES): O=C(O)/C=C/c1ccc(O)c(O)c1 [Caffeic acid, caffeic acid]
SI PRO (selectivity index CC50/IC50, promastigotes) [2]: 20.05 | IC50 [2]: 11 µg/mL and 60.8 µM | CC50 at 48 h ([3]; RAW 264.7 macrophages): 220 µg/mL and 1.22 mM | SI AMA (selectivity index CC50/IC50, intracellular amastigotes) [7]: 55.69 | IC50 [7, 15]: 3.95 µg/mL and 21.9 µM | increase in nitrite levels in comparison to the control ([8]; 100 µg/mL): 234.6% | increase in nitrite levels in comparison to the control ([8]; 200 µg/mL): 311.5% | effect on NO production by infected macrophages (in words) [8]: significantly increased nitric oxide production; also recorded: significantly increased NO production | percentage of inhibition of bovine hepatic arginase [13]: 61.3 ± 4.1% | IC50 [13]: 86.7 µM | IC50 against L. amazonensis promastigote forms [9]: 0.9 ± 0.2 µg/mL (≈ 5 µM) | IC50 for intracellular amastigotes of L. amazonensis [10]: 2.9 ± 0.3 µg/mL | CC50 for BALB/c mice peritoneal macrophages [11]: 32.5 ± 2.0 µg/mL | reduction of lesion size and parasite burden (in words) [12]: more effective in reducing lesion size and parasite burden | mice death or loss of body weight (in words) [12]: did not lead to mice death or significant loss of body weight

Structure (SMILES): O=c1cc(-c2ccc(O)cc2)oc2cc(O)c([C@@H]3O[C@H](CO)[C@@H](O)[C@H](O)[C@H]3O)c(O)c12 [isovitexin]
effect on L. amazonensis arginase (in words) [5]: little effect

percentage of inhibition of ARGLi activity [6]: 49.02 ± 14.92% | Promastigotes IC50±SE [2]: 114.8 ± 14.65 µg/mL | IC50 [2]: 115 µg/mL and 395 µM | IC50 [7, 15]: 83.2 µg/mL and 287 µM | Intracellular amastigotes IC50±SE [7, 15]: 83.28 ± 10.6 µg/mL
Structure (SMILES): Oc1cc(O)c2c(c1)O[C@H](c1ccc(O)c(O)c1)[C@@H](O)C2 [Catechin, catechin, reference compound]
SI PRO (selectivity index CC50/IC50, promastigotes) [2]: 2.23 | CC50 at 48 h ([3]; RAW 264.7 macrophages): 257 µg/mL and 885 µM | RAW 264.7 CC50±SE [14]: 256.98 ± 0.64 µg/mL | SI AMA (selectivity index CC50/IC50, intracellular amastigotes) [7]: 3.08 | effect on NO production by infected macrophages (in words) [8]: did not affect NO production | IC50 for L. amazonensis promastigotes ([9]; catechin isolated from Stryphnodendron obovatum stem bark ref 47): 43.2 ± 2.1 µg/mL

Structure (SMILES): O=c1c(O)c(-c2ccc(O)c(O)c2)oc2cc(O)cc(O)c12 [Quercetin, quercetin, reference compound]
percentage of inhibition of ARGLi activity [6]: 67.05 ± 10.36% | IC50 [5]: 4.3 µM | IC50 against L. donovani [4]: 1 µg/mL (≈ 3.31 µM) | percentage of inhibition of bovine hepatic arginase [13]: 64.4 ± 2.5% | IC50 [13]: 31.2 µM
